Measured values published in ChEMBL document CHEMBL1156829 (Proc Natl Acad Sci U S A, 2008).

How the values were obtained:
Plasmodium falciparum [1] = assay: NOVARTIS: Inhibition of Plasmodium falciparum 3D7 (drug-susceptible) proliferation in erythrocyte-based infection assay; assay type: functional, organism-based; settings: Plasmodium falciparum, 3D7
[2] = NOVARTIS: Cytotoxicity against human hepatocellular carcinoma cell line (Huh7); assay type: toxicity, cell-based, Huh-7; settings: Huh7 cells (hepatocellular carcinoma cell line)
Plasmodium falciparum [3] = assay: NOVARTIS: Inhibition of Plasmodium falciparum W2 (drug-resistant) proliferation in erythrocyte-based infection assay; assay type: functional, organism-based; settings: Plasmodium falciparum, W2; read-out: EC50

Row | Compound | EC50 (Plasmodium falciparum [1]) [µM] | CC50 [2] [µM] | EC50 (Plasmodium falciparum [3]) [µM]
1 | COc1cccc2c1[C@@H](OC)[C@@]13O[C@]1(C2=O)[C@H](O)[C@@H](C)[C@](O)(C(=O)[C@@H]1O[C@H]1C)[C@H]3O | 0.264 | 2.82 | 0.226
2 | NC1(C(=O)O)CCc2cc(C(=O)O)ccc21 (centres undefined) | > 1.16 | > 10 | 0.833
3 | O=[N+]([O-])c1ccc2nc(Nc3ccc(Cl)c(Cl)c3)c(Nc3ccc(Cl)c(Cl)c3)nc2c1 | 7.23 | > 85.4 | 7.04
4 | Oc1ccc(-c2nc(-c3ccc4oc5ccc(-c6[nH]c(-c7ccc(O)cc7)nc6-c6ccccc6)cc5c4c3)c(-c3ccccc3)[nH]2)cc1 | 3.3 | > 100 | 8.28
5 | CCC(c1nc2ccccc2c(=O)n1-c1ccc(F)c(Cl)c1)N(CCc1ccccc1)C(=O)COc1ccccc1 (centres undefined) | 1.19 | > 6.28 | > 0.492
6 | c1cncc(-c2cc(N3CCc4ccccc4C3)nc(-c3ccncc3)n2)c1 | 0.602 | > 10 | 0.794
7 | CC(C)c1ccc2c(c1)c1c3c([n+](C)ccn32)CCC1 | 1.72 | 31.8 | 2.63
8 | CCc1cccc(NC(=O)CCCn2c(=O)c3cccn3c3ccccc32)c1 | > 1.56 | > 10 | 0.826
9 | COC(=O)[C@@H]1C[C@@H](NC(=O)c2ccc(OC)cc2OC)CN1C/C(C)=C/c1ccccc1 | 0.432 | > 10 | 0.821
10 | CCN(c1ccc(F)cc1)S(=O)(=O)c1ccc2[nH]cc(C(=O)NC(C)(C)C)c(=O)c2c1 | > 1.6 | > 10 | 0.83
11 | CC(=O)OC1CCC2(C)C(CCC3C2CCC2(C)C3CC(O)C2(O)C(C)=O)C1 (centres undefined) | > 1.25 | > 10 | > 0.826
12 | CCc1ccc(-n2c(C(CC)N(CCC(C)C)C(=O)Nc3ccc(Cl)c(Cl)c3)nc3ccccc3c2=O)cc1 (centres undefined) | > 1.25 | > 10 | > 0.83
13 | Nc1nc(N)c2cc(S(=O)(=O)N3CCSCC3)ccc2n1 | 0.117 | 15.1 | > 1.25
14 | COc1ccccc1N1CCN([C@@H]2CCN(Cc3cccnc3)C[C@@H]2CCC(=O)N2CCCC2)CC1 | 1.08 | > 10 | 0.81
15 | O=C(Nc1ccc(Cl)c(C(F)(F)F)c1)NC1CC2CCC(C1)N2C1CCCC1 (centres undefined) | 0.541 | > 10 | 0.81
16 | CCCOc1ccc(C=Nc2ccc(S(=O)(=O)Nc3ccccn3)cc2)cc1 | 1.41 | > 10 | 0.813
17 | CCNC(=O)NCCSc1nc(-c2ccc(OC)cc2)c(-c2ccc(OC)cc2)n1CC | > 1.66 | > 10 | > 0.812
18 | O=C(CSc1cn(CCNC(=O)c2ccc(F)cc2)c2ccccc12)Nc1ccccc1F | > 12.5 | > 98.9 | > 8.09
19 | Cc1ccc2c(c1)N(CC(=O)NC1CCCCC1C)C(=O)CO2 (centres undefined) | 2.01 | > 10 | > 0.815
20 | CC(C)CNC(=O)c1cnc(NCCCN(C)C)nc1NCC1CCCCC1 | 0.334 | > 10 | 0.815
21 | COC(=O)c1cccc(NC(=O)/C(=C\c2cccc([N+](=O)[O-])c2)NC(=O)c2ccccc2OC)c1 | > 1.67 | > 10 | > 0.814
22 | Cc1ccc(NC(=O)N2CCN(CCN(Cc3ccc(F)cc3)C(=O)c3ccccc3C)CC2)cc1 | > 1.74 | > 10 | 0.818
23 | O=[N+]([O-])c1ccc(-c2cn3nc(C(F)(F)F)sc3n2)cc1 | 1.05 | > 10 | 0.818

Row | Compound | EC50 (Plasmodium falciparum [1]) [µM] | CC50 [2] [µM] | EC50 (Plasmodium falciparum [3]) [µM]
24 | COc1ccc(/C=C/C(=O)Nc2ccncc2)cc1OC | 0.593 | > 10 | 0.828
25 | CCCCCC[P+](N(CCC)CCC)(N(CCC)CCC)N(CCC)CCC | 0.0704 | 1.16 | 0.0956
26 | O=C(CSc1nc2ccccc2c(=O)n1C1CC1)Nc1cc(C(F)(F)F)ccc1Cl | 0.719 | > 100 | 8.11
27 | Cc1nc(-c2ccccc2)nc(C(=O)N2CCN(S(=O)(=O)/C=C/c3ccccc3)C(C)C2)c1C(=O)OCC(C)C (centres undefined) | 0.931 | > 10 | 0.785
28 | CCOc1ccc(NC(=O)c2ccc(I)o2)cc1 | 4.85 | 69.6 | 5.79
29 | CC1CCN(C(=O)C(C)N(c2ccccc2)S(C)(=O)=O)CC1 (centres undefined) | 7.2 | > 100 | 8.32
30 | Cc1csc(NC(=O)C2c3ccccc3C(=O)N(CC(C)C)C2c2cccs2)n1 (centres undefined) | 0.611 | > 10 | 0.785
31 | COc1cc(NC(=O)Cn2ncc3c(=O)oc4ccccc4c32)cc(OC)c1OC | > 12.5 | > 100 | 7.83
32 | Cc1ccc(S(=O)(=O)N(C)CCCNc2ccnc3cc(Cl)ccc23)cc1 | 0.38 | 4.01 | 0.314
33 | CCCCc1ccc(C(=O)N(CC(=O)Nc2cc(C(C)(C)C)nn2-c2ccc(Cl)cc2)C(C)C)cc1 | > 1.38 | > 10 | > 0.832
34 | c1ccc2c(c1)ccc[n+]2CCCCCC[n+]1cccc2ccccc21 | 0.406 | > 10 | 0.78
35 | O=C1NCCN1CCNS(=O)(=O)c1cc(C(F)(F)F)cc(C(F)(F)F)c1 | 1.2 | > 10 | 0.786
36 | CCOc1ccc(NCc2ccc(O)c3ncccc23)cc1 | 7.61 | > 55.6 | > 4.37
37 | COC(=O)C1=CNC=C(C(=O)OC)C1c1cc(Br)ccc1OC | > 12.2 | > 57.8 | 4.52
38 | CCCCCCN(C(=O)c1ccc(CC)cc1)C(CC)c1nc2ccccc2c(=O)n1-c1cccc(Cl)c1 (centres undefined) | 0.781 | > 10 | 0.782
39 | CC(C)CN(CC(=O)Nc1cc(C(C)(C)C)nn1-c1ccccc1)C(=O)Cc1cccs1 | 1.3 | > 10 | 0.781
40 | CCCCCCN(C(=O)COCc1ccccc1)C(CC)c1nc2ccccc2c(=O)n1-c1ccc(F)c(Cl)c1 (centres undefined) | 0.607 | > 10 | 0.821
41 | COc1cccc(OC)c1C(=O)Oc1cccc2ccc(C)nc12 | > 1.25 | > 10 | 0.788
42 | O=C(CCl)NCCCN(C(=O)Nc1ccc(Cl)c(Cl)c1)c1ccccc1 | 0.217 | > 0.931 | 0.074
43 | O=[N+]([O-])c1ccc(Cl)c(-c2ccc(C=NNc3nc4ccccc4[nH]3)o2)c1 | 0.946 | > 10 | 0.801
44 | COc1ccc(C=Cc2ccc3ccccc3[n+]2C)cc1 | > 5.37 | > 100 | 7.93
45 | CCCNC(=O)c1cc(NC(=O)c2cc(C(F)(F)F)cc(C(F)(F)F)c2)ccc1N1CCCCC1 | > 1.56 | 10.2 | > 0.816
46 | COc1ccc(OC)c(-c2ccc(O)c(CNCCc3ccccc3F)c2)c1 | 1.14 | > 10 | 0.79

Row | Compound | EC50 (Plasmodium falciparum [1]) [µM] | CC50 [2] [µM] | EC50 (Plasmodium falciparum [3]) [µM]
47 | CCCCCCN(C(=O)c1cccc(C(F)(F)F)c1)C(CC)c1nc2ccccc2c(=O)n1-c1ccccc1OC (centres undefined) | 0.793 | > 10 | 0.79
48 | COc1ccc(CCNC(=O)Cn2c(C)cc3ccccc3c2=O)cc1OC | > 1.54 | > 10 | 0.796
49 | COC(=O)C(Nc1ccc(Cl)c(Cl)c1)(c1cc(C)c(O)c(C)c1)C(F)(F)F (centres undefined) | > 1.39 | > 10 | > 0.789
50 | O=C1CC(=O)Nc2cc(S(=O)(=O)NC3CCCCCCC3)ccc2N1 | > 1.25 | > 10 | > 0.796
51 | Cn1c(=O)[nH]c2c(c1=O)n(C)c(=O)n2C | > 0.957 | > 10 | > 0.799
52 | CC(=O)N(C1=C(N2CCOCC2)C(=O)c2ccccc2C1=O)c1ccc(F)cc1 | 0.0129 | 0.173 | 0.014
53 | Cc1cccnc1NC(=O)CCCC(=O)O | > 1.07 | > 10 | 0.788
54 | COc1ccc(CCNc2nc(NCCC3CCCN3C)ncc2C(=O)NCc2ccccc2)cc1OC (centres undefined) | 1.06 | > 10 | > 0.802
55 | Cn1c2ccccc2c2nnc(NN=Cc3ccccn3)nc21 | 0.866 | > 10 | 0.793
56 | CCCn1c(C=NNc2nc3ccccc3[nH]2)nc2ccccc21 | 5.56 | 62.8 | 5.11
57 | O=C(/C=C/c1ccccc1)NNC(=O)c1cccnc1 | > 1.25 | > 9.45 | > 0.75
58 | COc1ccc(-c2c[n+](-c3ccccc3)c3n2CCS3)cc1 | 0.778 | > 10 | 0.784
59 | CCCCCCOC(=O)C1=C(C)NC(=O)NC1c1ccccc1F (centres undefined) | > 6.76 | > 100 | > 8.31
60 | COc1cc(NC(C)CCCN(Cc2ccc(F)cc2)C(=O)CCc2ccccc2)c2ncccc2c1 (centres undefined) | 1.4 | 4.62 | 0.361
61 | Cc1ccc(C)c(Nc2nc(NCC3CCCO3)c3ccccc3n2)c1 (centres undefined) | 1.53 | 18.6 | 1.54
62 | CCCCc1ccc(NC(C)=O)cc1 | 0.214 | 4.21 | 0.334
63 | Cc1nc(N)sc1C(=O)NN=Cc1cccc(Br)c1 | > 1.25 | > 10 | 0.819
64 | CC(C)CCNC(=O)C1CSC(c2ccc(F)cc2)N1C(=O)c1ccc(Cl)cc1Cl (centres undefined) | > 12.5 | > 100 | 8.18
65 | CC1(C)CC(NC(=O)C(=O)NC2CC(C)(C)N(O)C(C)(C)C2)CC(C)(C)N1O | > 1.3 | > 10 | > 0.784
66 | CN(C)c1ccc(/C=C/c2cc(/C=C/c3ccc(N(C)C)cc3)[n+]3ccccc3n2)cc1 | 1.34 | > 10 | 0.811
67 | O=C(Oc1ccccc1N1C(=O)C2C3C=CC(C3)C2C1=O)c1ccc([N+](=O)[O-])cc1 (centres undefined) | > 9.74 | > 100 | 8.07
68 | CC(C)c1ccc(C2N(c3ccccc3)C3(C(=O)c4ccccc4C3=O)C(c3ccc(C(C)C)cc3)C23C(=O)c2ccccc2C3=O)cc1 (centres undefined) | 0.802 | > 10 | 0.792
